Measured values from ChEMBL document CHEMBL5465560, “Selectivity Literature for EUbOPEN Chemogenomic Library” (2024).
pIC50: −log10 of the molar value.

Columns and labels:
[1] = target: T1, Hormonally up-regulated neu tumor-associated kinase (Homo sapiens) (UniProt P57058); assay: Selectivity interaction (KinomeScan (DiscoverX)) EUB0000229b HUNK; details: at 10 µM
T1 sequence (whole entry): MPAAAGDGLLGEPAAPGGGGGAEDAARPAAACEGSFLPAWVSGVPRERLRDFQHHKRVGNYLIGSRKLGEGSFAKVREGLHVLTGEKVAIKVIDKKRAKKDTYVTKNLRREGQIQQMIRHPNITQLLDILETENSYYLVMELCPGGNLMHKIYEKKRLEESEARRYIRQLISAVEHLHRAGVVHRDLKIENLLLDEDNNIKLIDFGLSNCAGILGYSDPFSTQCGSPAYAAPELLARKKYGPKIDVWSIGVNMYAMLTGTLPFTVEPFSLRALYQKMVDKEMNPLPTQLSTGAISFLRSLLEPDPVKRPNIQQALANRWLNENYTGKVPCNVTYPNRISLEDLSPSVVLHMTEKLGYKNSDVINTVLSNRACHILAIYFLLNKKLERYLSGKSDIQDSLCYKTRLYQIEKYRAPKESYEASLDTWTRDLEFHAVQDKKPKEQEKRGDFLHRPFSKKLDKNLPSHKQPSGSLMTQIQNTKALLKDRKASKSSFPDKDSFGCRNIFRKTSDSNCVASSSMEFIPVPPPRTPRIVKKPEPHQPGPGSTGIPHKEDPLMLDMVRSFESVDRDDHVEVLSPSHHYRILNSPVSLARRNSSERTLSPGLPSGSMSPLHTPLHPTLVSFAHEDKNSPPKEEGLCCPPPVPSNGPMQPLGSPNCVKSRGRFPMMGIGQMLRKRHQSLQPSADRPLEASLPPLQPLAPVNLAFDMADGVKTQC

[2] = target: Tyrosine-protein kinase ABL1 (Homo sapiens, UniProt P00519); assay: Selectivity interaction (Kinase panel (enzymatic assay)) EUB0000595a ABL1
[3] = target: Dual specificity testis-specific protein kinase 1 (Homo sapiens) (UniProt Q15569); details: at 10 µM
[4] = target: T2, Dual specificity protein kinase TTK (Homo sapiens) (UniProt P33981); assay: Selectivity interaction (KinomeScan (DiscoverX)) EUB0000045b TTK
T2 sequence (whole entry): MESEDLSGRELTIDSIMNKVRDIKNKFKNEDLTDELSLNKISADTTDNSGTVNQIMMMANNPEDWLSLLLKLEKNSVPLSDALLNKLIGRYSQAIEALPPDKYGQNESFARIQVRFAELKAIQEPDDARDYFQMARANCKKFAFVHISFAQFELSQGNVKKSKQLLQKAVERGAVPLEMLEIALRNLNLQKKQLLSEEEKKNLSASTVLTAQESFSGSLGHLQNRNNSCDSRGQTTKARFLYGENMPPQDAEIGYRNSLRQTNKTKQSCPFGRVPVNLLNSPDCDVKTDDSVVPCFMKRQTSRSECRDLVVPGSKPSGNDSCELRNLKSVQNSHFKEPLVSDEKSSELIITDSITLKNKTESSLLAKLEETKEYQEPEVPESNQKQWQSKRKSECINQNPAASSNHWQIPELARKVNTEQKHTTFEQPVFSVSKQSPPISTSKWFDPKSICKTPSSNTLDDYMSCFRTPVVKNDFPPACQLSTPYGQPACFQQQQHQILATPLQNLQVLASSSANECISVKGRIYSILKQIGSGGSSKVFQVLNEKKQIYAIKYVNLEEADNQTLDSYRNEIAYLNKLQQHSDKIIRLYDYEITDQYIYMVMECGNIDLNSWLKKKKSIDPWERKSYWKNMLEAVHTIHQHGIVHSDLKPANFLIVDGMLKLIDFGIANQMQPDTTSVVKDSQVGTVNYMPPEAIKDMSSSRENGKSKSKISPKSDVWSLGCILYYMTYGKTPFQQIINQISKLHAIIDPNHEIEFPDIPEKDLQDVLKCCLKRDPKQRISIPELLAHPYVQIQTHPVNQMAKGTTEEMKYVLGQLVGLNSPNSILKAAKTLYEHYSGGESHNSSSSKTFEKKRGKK

[5] = target: Serine/threonine-protein kinase WNK1 (Homo sapiens) (UniProt Q9H4A3); assay: Selectivity interaction (KinomeScan (DiscoverX)) EUB0000695a WNK1; details: at 100 nM
[6] = target: Histone-lysine N-methyltransferase ASH1L (Homo sapiens) (UniProt Q9NR48); assay: Selectivity interaction (Methyltransferase screen (radiometric assays, panel of 8 PRMTs, 21 protein lysine methyltransferases, 3 DNA methyltransferases, and one RNA methyltransferase)) EUB0000272b ASH1L
[7] = target: Serine/threonine-protein kinase 38 (Homo sapiens) (UniProt Q15208); assay: Selectivity interaction (KinomeScan (DiscoverX)) EUB0000666a STK38; details: at 10 µM
Sequence of Serine/threonine-protein kinase 38 (Homo sapiens) (Q15208 2-465 limits assumed): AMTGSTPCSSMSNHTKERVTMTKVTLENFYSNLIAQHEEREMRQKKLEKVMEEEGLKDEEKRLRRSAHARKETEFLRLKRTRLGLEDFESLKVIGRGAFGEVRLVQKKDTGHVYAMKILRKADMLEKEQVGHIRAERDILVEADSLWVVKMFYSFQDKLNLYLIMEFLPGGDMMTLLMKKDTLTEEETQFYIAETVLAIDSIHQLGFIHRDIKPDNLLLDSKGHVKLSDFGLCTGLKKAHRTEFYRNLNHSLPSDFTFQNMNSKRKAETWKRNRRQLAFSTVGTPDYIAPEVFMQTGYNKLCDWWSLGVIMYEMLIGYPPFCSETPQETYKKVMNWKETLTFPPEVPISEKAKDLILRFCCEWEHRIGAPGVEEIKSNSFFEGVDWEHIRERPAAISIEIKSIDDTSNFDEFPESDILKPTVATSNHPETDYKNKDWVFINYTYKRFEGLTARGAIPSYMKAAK

[8] = target: Serine/threonine-protein kinase Nek6 (Homo sapiens) (UniProt Q9HC98); assay: Selectivity interaction (ActivX KiNativ screen (ex vivo kinase selectivity in human PBMCs)) EUB0001619a NEK6; format: cell-based; details: PBMC, at 1 µM
Sequence of Serine/threonine-protein kinase Nek6 (Homo sapiens) (Q9HC98 whole entry): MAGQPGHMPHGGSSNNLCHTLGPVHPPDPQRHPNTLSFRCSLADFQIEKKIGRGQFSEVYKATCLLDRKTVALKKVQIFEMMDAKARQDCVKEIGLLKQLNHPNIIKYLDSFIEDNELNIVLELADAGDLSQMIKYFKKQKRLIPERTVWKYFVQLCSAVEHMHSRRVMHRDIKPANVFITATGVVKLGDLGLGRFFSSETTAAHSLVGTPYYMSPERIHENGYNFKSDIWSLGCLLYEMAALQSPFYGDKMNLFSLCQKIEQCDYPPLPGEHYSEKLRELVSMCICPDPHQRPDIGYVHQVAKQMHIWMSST

[9] = target: Tyrosine-protein kinase HCK (Homo sapiens) (UniProt P08631); assay: Selectivity interaction (KinaseProfiler screening (Millipore)) EUB0000601a HCK; details: at 3 µM
Sequence of Tyrosine-protein kinase HCK (Homo sapiens) (P08631 2-526 limits assumed): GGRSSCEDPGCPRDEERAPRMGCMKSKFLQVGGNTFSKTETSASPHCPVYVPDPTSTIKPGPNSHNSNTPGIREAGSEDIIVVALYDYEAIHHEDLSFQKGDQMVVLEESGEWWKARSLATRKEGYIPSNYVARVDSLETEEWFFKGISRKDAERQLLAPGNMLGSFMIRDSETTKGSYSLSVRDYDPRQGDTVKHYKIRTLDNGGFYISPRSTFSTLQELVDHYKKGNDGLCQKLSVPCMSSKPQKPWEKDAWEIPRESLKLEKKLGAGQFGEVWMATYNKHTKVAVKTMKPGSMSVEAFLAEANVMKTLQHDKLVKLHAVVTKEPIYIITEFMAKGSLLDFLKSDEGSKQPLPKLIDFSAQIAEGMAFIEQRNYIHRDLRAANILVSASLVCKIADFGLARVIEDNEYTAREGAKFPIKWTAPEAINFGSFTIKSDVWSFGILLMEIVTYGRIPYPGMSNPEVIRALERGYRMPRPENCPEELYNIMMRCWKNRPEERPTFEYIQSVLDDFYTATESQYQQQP

[10] = target: Serine/threonine-protein kinase MARK1 (Homo sapiens) (UniProt Q9P0L2); assay: Selectivity interaction (KinomeScan (DiscoverX)) EUB0000618a MARK1; details: at 10 µM
[11] = target: Epidermal growth factor receptor (Homo sapiens, UniProt P00533); assay: Selectivity interaction (Kinase panel (Invitrogen)) EUB0000639a EGFR; details: at 200 nM
Sequence of Epidermal growth factor receptor (P00533 whole entry): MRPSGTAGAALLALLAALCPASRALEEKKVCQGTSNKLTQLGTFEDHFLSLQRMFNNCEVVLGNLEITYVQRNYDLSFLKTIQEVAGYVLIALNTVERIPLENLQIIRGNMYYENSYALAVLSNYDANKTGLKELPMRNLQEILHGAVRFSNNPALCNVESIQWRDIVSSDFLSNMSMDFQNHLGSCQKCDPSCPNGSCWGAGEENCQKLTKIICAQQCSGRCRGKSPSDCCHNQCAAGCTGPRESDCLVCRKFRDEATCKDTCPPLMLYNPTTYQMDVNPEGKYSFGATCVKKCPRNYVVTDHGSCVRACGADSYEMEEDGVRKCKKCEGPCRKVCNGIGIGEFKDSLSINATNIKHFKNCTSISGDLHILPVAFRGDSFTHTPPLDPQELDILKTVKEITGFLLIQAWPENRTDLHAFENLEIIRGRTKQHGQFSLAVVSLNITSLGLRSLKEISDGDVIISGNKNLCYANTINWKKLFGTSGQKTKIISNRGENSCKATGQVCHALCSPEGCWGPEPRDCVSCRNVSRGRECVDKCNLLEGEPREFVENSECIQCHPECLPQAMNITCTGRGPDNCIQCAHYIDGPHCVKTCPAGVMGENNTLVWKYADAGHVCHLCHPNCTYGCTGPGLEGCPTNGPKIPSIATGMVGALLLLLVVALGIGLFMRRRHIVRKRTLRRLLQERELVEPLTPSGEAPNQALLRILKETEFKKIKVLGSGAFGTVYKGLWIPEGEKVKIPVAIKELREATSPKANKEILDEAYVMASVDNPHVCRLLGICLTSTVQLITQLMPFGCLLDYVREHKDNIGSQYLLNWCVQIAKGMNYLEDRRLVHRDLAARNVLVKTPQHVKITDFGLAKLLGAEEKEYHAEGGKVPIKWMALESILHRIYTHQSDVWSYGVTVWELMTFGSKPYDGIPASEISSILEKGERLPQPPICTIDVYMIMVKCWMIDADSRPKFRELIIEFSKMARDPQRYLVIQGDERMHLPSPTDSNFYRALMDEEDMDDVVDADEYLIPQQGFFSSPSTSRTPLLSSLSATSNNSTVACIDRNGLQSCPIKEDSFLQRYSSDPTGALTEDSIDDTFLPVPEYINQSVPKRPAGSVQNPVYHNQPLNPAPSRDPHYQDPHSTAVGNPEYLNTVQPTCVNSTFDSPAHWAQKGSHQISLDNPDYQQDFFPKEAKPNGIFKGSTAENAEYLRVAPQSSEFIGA

[12] = target: Mitogen-activated protein kinase kinase kinase 11 (Homo sapiens) (UniProt Q16584); assay: Selectivity interaction (ActivX KiNativ screen (kinase selectivity in THP-1 cell lysates)) EUB0000639a MAP3K11; format: subcellular; details: lysate, at 0.04 µM
Sequence of Mitogen-activated protein kinase kinase kinase 11 (Homo sapiens) (Q16584 whole entry, looked up): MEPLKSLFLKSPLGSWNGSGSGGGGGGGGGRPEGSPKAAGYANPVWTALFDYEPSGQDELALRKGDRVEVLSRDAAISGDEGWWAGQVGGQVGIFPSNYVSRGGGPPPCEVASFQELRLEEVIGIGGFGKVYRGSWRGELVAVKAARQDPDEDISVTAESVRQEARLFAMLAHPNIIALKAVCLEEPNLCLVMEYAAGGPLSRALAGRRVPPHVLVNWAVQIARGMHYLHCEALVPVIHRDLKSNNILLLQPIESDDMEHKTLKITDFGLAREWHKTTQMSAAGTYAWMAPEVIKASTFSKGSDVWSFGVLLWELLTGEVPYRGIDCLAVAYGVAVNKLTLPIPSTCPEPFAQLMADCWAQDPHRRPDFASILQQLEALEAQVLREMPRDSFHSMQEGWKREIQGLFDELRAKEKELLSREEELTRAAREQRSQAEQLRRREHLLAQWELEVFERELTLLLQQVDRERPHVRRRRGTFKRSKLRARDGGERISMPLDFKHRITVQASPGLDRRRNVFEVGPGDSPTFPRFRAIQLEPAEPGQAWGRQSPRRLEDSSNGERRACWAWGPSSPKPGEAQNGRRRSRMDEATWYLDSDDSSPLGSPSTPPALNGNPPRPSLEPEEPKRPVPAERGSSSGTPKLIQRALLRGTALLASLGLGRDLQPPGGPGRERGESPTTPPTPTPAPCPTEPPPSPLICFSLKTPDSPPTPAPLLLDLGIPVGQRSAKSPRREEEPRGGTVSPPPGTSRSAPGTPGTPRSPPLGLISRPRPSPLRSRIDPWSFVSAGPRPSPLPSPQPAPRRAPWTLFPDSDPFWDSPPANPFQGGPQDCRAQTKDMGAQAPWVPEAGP

[13] = test system: Epidermal growth factor receptor (Homo sapiens), P00533 [UNDEFINED MUTATION]; assay: Selectivity interaction (KinomeScan (DiscoverX)) EUB0000655a EGFR; details: at 10 µM
Sequence of Epidermal growth factor receptor (Homo sapiens), P00533 [UNDEFINED MUTATION] (P00533 whole entry, looked up, change not shown): as the sequence (P00533 whole entry) above

[14] = target: T3, Dual specificity mitogen-activated protein kinase kinase 6 (Homo sapiens) (UniProt P52564); assay: Selectivity interaction (Ambit KINOMEscan and KiNATiv profiling in Jurkat cells) EUB0000090b MAP2K6; format: cell-based; details: at 1 µM
T3 sequence (whole entry): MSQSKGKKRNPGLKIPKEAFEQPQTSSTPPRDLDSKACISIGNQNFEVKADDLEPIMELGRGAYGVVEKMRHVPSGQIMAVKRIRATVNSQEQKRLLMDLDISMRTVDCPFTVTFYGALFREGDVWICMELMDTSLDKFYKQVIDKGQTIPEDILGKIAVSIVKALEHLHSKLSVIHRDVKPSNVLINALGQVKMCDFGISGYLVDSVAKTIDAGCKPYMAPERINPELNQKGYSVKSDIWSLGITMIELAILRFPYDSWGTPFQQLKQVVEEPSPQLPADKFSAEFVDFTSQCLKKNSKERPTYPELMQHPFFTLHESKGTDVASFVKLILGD

Q: How did the % binding [1] turn out when COc1cc(N(C)c2ccnc3ccc(C(F)(F)F)cc23)cc(OC)c1OC was run?
A: 93%

Q: What does the source list for COCC(=O)NC/C=C/c1ccc2ncnc(Nc3ccc(Oc4ccc(C)nc4)c(C)c3)c2c1 [CP-724714]?
A: pIC50 [2]: < 5.00; % of control [3]: 75%

Q: C=CC(=O)Nc1cc(-n2c(=O)ccc3cnc4ccc(-c5ccc(NS(C)(=O)=O)cc5)cc4c32)ccc1C was tested. Which % of control ([4]; at 1 µM) did it give?
A: 100%

Q: And the % of control ([4]; at 10 µM)?
A: 52%

Q: How did the % of control [5] turn out when Cc1cc(F)c(C(=O)Nc2cccc(-c3nncn3C(C)C)n2)cc1-n1cnc(C2CC2)c1 was run?
A: 100%

Q: Which % of activity ([6]; at 1 µM) does the source give for Cc1cc(C)cc([C@H]2c3cc(C)ccc3NC(=O)CN2C(=O)c2ccc(Br)s2)c1 here?
A: 102%

Q: What about the % of activity ([6]; at 10 µM) of the same molecule?
A: 99.7%

Q: O=C(NOC[C@H](O)CO)c1ccc(F)c(F)c1Nc1ccc(I)cc1F was tested. Which % of control [7] did it give?
A: 100%

Q: Which % of inhibition [8] does the source give for N#Cc1cccc(-c2c[nH]c3ncnc(N4CCOCC4)c23)c1 here?
A: -5%

Q: Which % of inhibition [9] does the source give for CCc1cc(Nc2nccc(-c3c(-c4ccc(OC)c(C(=O)Nc5c(F)cccc5F)c4)nc4ccccn34)n2)c(OC)cc1N1CCC(N2CCN(S(C)(=O)=O)CC2)CC1 here?
A: 81%

Q: How did the % of control [10] turn out when O[C@H]1CC[C@H](Nc2ncc3nc(Nc4c(F)cc(F)cc4F)n([C@H]4CCOC4)c3n2)CC1 was run?
A: 100%

Q: What does the source list for CC[C@@H]1[C@H](F)C(=O)N[C@@H]1COc1nccc2cc(C(N)=O)c(OC)cc12 [ZIMLOVISERTIB]?
A: % of inhibition [11]: 17%; % of inhibition [12]: -8.9%

Q: How did the % of control [13] turn out when CN(C)CCOc1ccc(-c2nc(-c3ccncc3)c(-c3ccc4c(c3)CC/C4=N\O)[nH]2)cc1 was run?
A: 81%

Q: Which % of control [14] does the source give for CN(C)C/C=C/C(=O)Nc1ccc(C(=O)N2CCCC(Nc3ncc(Cl)c(-c4c[nH]c5ccccc45)n3)C2)cc1 (stereo unspecified) here?
A: 78%
